Measurements: publication PMC7456637, “Pharmacokinetic characterization of fluorocoxib D, a cyclooxygenase-2-targeted optical imaging agent for detection of cancer” (Journal of Biomedical Optics, 2020)
Where “and” joins values, the source holds several entries; their conditions need not be identical. Equal values may be shown once. Entries after “also recorded” stand apart in the source; their conditions may differ.

Legend:
[1] = system: COX-2-expressing human 5637 cancer cells; assay: Fluorocoxib D uptake by human 5637 cancer cells (fluorescence microscopy); type: cell-based; settings: 50 nM, 30 min, COX-2-positive 5637 cells
Experimental: Human 5637 cells were seeded on four-chamber slides (Nalge Nunc, Rochester, New York) and grown until reached 70% to 80% confluence. […] The nuclei of cells were stained with DAPI for 10 min, and slides were mounted using an aqueous mounting medium. Images of cells were captured by a Leica DMi8 fluorescent microscope with Hamamatsu Orca Flash 4.0LT Digital CMOS Camera (Leica Microsystems Inc., Chicago, Illinois) using Leica Application Suite X software (LASX, Leica).

[2] = Pilot safety study: physical examination and adverse events; type: in vivo, dog
Experimental: (§1) The animal studies were performed in the accordance with the University of Tennessee Institutional Animal Care and Use Committee (UT IACUC)-approved protocols and in an accordance with NIH guidelines. Individually housed research healthy female beagle dogs (Covance Research Product) with weights of 6.7 to 10.3 kg were used to assess the safety and pharmacokinetic parameters of fluorocoxib D administrated a dose of 1 mg/kg over 20 min intravenously (i.v.).
For single dose safety evaluation studies, we administrated fluorocoxib D at 1 mg/kg , i.v. using a preplaced cephalic or saphenous vein catheter over 20 min to six healthy research dogs following protocol as described previously.[38] Briefly, physical examinations for signs of potential drug toxicity were performed before, during, and daily for 3 days after fluorocoxib D administration. Physical assessment included auscultation of heart and lungs, abdominal palpation, body temperature, appetite, attitude, activity levels monitoring, and other health-related events. Hypersensitivity was evaluated by direct observation of each dog during treatment for clinical signs of an allergic reaction (facial swelling, flushing, urticaria, dyspnea, scratching, and changes of heart rates). […] Laboratory evaluations of blood and urine were carried out before and 3 days after fluorocoxib D administration to monitor signs of toxicity. […] The CBC evaluated total white blood cells (WBC) and hematocrit (HCT), in addition to absolute numbers of neutrophils, lymphocytes, monocytes, eosinophils, and platelets. The plasma chemistry profile evaluated blood urea nitrogen (BUN), creatinine, proteins (albumin, globulins, and total proteins), alanine aminotransferase (ALT), total bilirubin, glucose, and electrolytes. The complete urinalysis evaluated urine proteins, glucose, and ketones; a sediment examination and urine-specific gravity were validated as well for any possible signs of renal toxicity of fluorocoxib D. All laboratory tests were carried out at the Veterinary Medical Center of the University of Tennessee in Knoxville.

COX1 = settings: cited from earlier work
[3] = Pilot safety study: complete urinalysis; type: in vivo, dog
Experimental: as §1
(§2) For single dose safety evaluation studies, we administrated fluorocoxib D at 1 mg/kg , i.v. using a preplaced cephalic or saphenous vein catheter over 20 min to six healthy research dogs following protocol as described previously.[38] Briefly, physical examinations for signs of potential drug toxicity were performed before, during, and daily for 3 days after fluorocoxib D administration. Physical assessment included auscultation of heart and lungs, abdominal palpation, body temperature, appetite, attitude, activity levels monitoring, and other health-related events. Hypersensitivity was evaluated by direct observation of each dog during treatment for clinical signs of an allergic reaction (facial swelling, flushing, urticaria, dyspnea, scratching, and changes of heart rates). […] Laboratory evaluations of blood and urine were carried out before and 3 days after fluorocoxib D administration to monitor signs of toxicity. Blood (up to 3 ml) was collected into ethylenediaminetetraacetic acid (EDTA) and heparin-treated tubes, and urine (up to 5 ml) was collected by cystocentesis or from the floor of the runs. The laboratory evaluation consisted of a complete blood count (CBC), serum chemistry profile, and complete urinalysis. The CBC evaluated total white blood cells (WBC) and hematocrit (HCT), in addition to absolute numbers of neutrophils, lymphocytes, monocytes, eosinophils, and platelets. The plasma chemistry profile evaluated blood urea nitrogen (BUN), creatinine, proteins (albumin, globulins, and total proteins), alanine aminotransferase (ALT), total bilirubin, glucose, and electrolytes. The complete urinalysis evaluated urine proteins, glucose, and ketones; a sediment examination and urine-specific gravity were validated as well for any possible signs of renal toxicity of fluorocoxib D. All laboratory tests were carried out at the Veterinary Medical Center of the University of Tennessee in Knoxville.

[4] = Pharmacokinetics of fluorocoxib D in research dogs, plasma HPLC; type: in vivo, dog
Experimental: as §1
To determine the pharmacokinetic parameters of fluorocoxib D ( 1 mg/kg , i.v.) in dogs, blood (2 to 3 ml) was collected from the jugular vein into EDTA-treated tubes at 0, 0.5, 1, 2, 4, 8, and 24 h after compound administration. The blood was centrifuged within 20 min of sample collection. Plasma was removed and stored at −80°C until further HPLC analysis.
Levels of fluorocoxib D were determined in collected canine plasma samples using HPLC at Vanderbilt University (JU). The frozen samples were thawed and extracted with acetonitrile. The organic layer was collected, dried, and reconstituted in methanol and water. The unknown samples were quantitated against a 5-point standard curve, which was prepared by mixing known quantities of fluorocoxib D with commercial canine plasma (Sigma-Aldrich) and subjecting the resulting samples to liquid–liquid extraction and HPLC. Samples were analyzed using a reverse-phase column (C18, 5×0.2 cm , Phenomenex) with gradient elution. The mobile phase component A was water, and B was acetonitrile, each containing 0.1% acetic acid. The gradient was 50% B to 90% B over 5 min, followed by a brief hold and return to initial conditions. The flow rate was 0.3 ml/min .
The pharmacokinetic parameters for fluorocoxib D were estimated from the plasma concentration-time data by a nonlinear mixed effects approach, as implemented with Monolix 4.1.2 (Lixoft S.A.S., Orsay, France). This approach allowed analyzing data from all animals at the same time and was ideal for relatively sparse datasets like the one used in this study. The plasma clearance (Cl), representing the overall ability of the body to eliminate fluorocoxib D, was determined by scaling its elimination rate (amount per time) by the corresponding plasma concentration level. The volume of distribution (Vd) was defined as the ratio of the total amount of fluorocoxib D in the body to the blood plasma concentration. The Cl and Vd were estimated directly from the study population data. The peak concentration in plasma ( Cmax ) and the following pharmacokinetic parameters were obtained by averaging the corresponding post-hoc Bayesian estimates. The individual partial areas under the curve between times 0 and 8 h ( AUC0−8 ) and the AUC0−∞ with extrapolation to infinity were calculated using the log-linear trapezoidal rule, as implemented with WinNonlin 5.1 (Pharsight, Mountain View, California). The mean residence time (MRT) value was determined as the ratio of the area under the first moment curve over AUC0−∞ . The elimination rate constant was determined as the slope obtained by linear regression of the terminal log-linear portion of the concentration versus time curve, and the elimination half-life ( t1/2 ) was then calculated. The plasma concentration graphs were generated using calculated averaged plasma concentrations of fluorocoxib D from six dogs after 1 mg/kg i.v. of fluorocoxib D administration performed over 20 min.

COX2 = settings: cited from earlier work
[5] = Pilot safety study: serum chemistry profile; type: in vivo, dog; settings: 3 days after single dose 1 mg/kg i.v.
Experimental: as §1, §2

[6] = design: method as in earlier work; settings: cited from earlier work
[7] = 3 days after single dose 1 mg/kg i.v., individual dogs, reference NEG, 1 mg/kg
[8] = female, beagle, dog, plasma, iv, 1 mg/kg i.v., six research dogs, mean ± S.D.

## COc1ccc2c(c1)c(CC(=O)NCCCCNC(=O)c1ccc(C3=c4cc5c6c(c4Oc4c3cc3c7c4CCCN7CCC3)CCC[N+]=6CCC5)cc1)c(C)n2C(=O)c1ccc(Cl)cc1 [Fluorocoxib D, N -[(rhodamin-X-yl)but-4-yl]-2-[1-(4-chlorobenzoyl)-5-methoxy-2-methyl-1H-indol-3-yl]acetamide]
[1]
  Uptake of fluorocoxib D by 5637 cells: Selective uptake
[2]; 1 mg/kg i.v. over 20 min, six research dogs
  Adverse events including diarrhea, vomiting, nausea, and loss of appetite: not observed
[2]; 1 mg/kg i.v. over 20 min, six research dogs, 3 days observation
  Overall safety / toxicity of single dose: No evidence of toxicity; also recorded: safe dose; also recorded: no clinically relevant adverse events
[2]; one dog of six, during 20 min i.v. administration, attributed to DMSO solvent
  Salivation during administration: increased salivation
COX1
  IC50: 4000 nM
[3]; 3 days after single dose 1 mg/kg i.v., individual dogs, 1 mg/kg
  SP. GRAV (urine-specific gravity), After: 1.03 and 1.039 (2×) and 1.032 and 1.044
[3]; 3 days after single dose 1 mg/kg i.v., individual dogs, reference NEG
  GLU-COSE (urine), After: NEG
[3]; 3 days after single dose 1 mg/kg i.v., individual dogs, reference NEG-1+, 1 mg/kg
  PRO-TEIN (urine), After: NEG (3×) and TRACE
[3]; [7]
  BLD/Hb (urine blood/hemoglobin), After: NEG (2×) and TRACE (2×)
  KETO-NES (urine), After: NEG (3×) and TRACE (2×)
[3]; 3 days after single dose 1 mg/kg i.v., individual dogs, reference range 5 to 9, 1 mg/kg
  PH (urine pH), After: >9 H and 6 (3×) and 5.5
[3]; two dogs (#4 and #6), no pyuria, not thought relevant to toxicity
  Urine bacteria finding 3 days after administration: bacteriuria
[4]; 1 mg/kg i.v. over 20 min, dogs, HPLC
  Peak concentration in plasma: 114.8 ± 50.5 ng/mL
[4]; 1 mg/kg i.v., dogs, HPLC
  Detection in plasma after 4 h following administration: No fluorocoxib D was detected; also recorded: No detectable levels
[4]; female, beagle, dog, plasma, iv, 1 mg/kg i.v. over 20 min, dogs, read-out: Time of peak plasma concentration after administration
  Tmax: 30 min
[4]; female, beagle, dog, plasma, iv, 1 mg/kg i.v. over 20 min, six research dogs, mean ± S.D.
  Cmax: 110 ± 50 ng/mL
[4]; [8]
  AUC(0-inf): 150 ± 50 ng·h/mL
  MRT: 87.6 ± 25.2 min
[4]; female, beagle, dog, plasma, iv, 1 mg/kg i.v., six research dogs, mean ± S.D., read-out: AUC0-8
  AUC(0-t): 110 ± 40 ng·h/mL
[4]; female, beagle, dog, plasma, iv, 1 mg/kg i.v., six research dogs, mean ± S.D., read-out: Cl (clearance) (converted)
  clearance: 123 mL/min/kg
[4]; female, beagle, dog, plasma, iv, 1 mg/kg i.v., six research dogs, mean ± S.D., read-out: Vdarea (volume of distribution)
  Vd: 9.97 ± 4.76 L/kg
[4]; female, beagle, dog, plasma, iv, 1 mg/kg i.v., six research dogs, mean ± S.D., read-out: t1/2 (terminal/elimination half-life) (converted)
  half-life: 54.6 ± 17.4 min
COX2
  IC50: 230 nM
COX2; ratio of IC50 values
  Ratio (COX1/COX2): 17.4
[5]; dogs #1, #3, #6, reference range 0.1 to 0.6
  TOT BILI (total bilirubin), After: 0.1 mg/dL
[5]; individual dogs #1-#6, reference range 0.3 to 1.1, 1 mg/kg
  CREATI (creatinine), After: 0.8 mg/dL (3×) and 0.6 mg/dL (3×)
[5]; individual dogs #1-#6, reference range 0.65 to 0.98, 1 mg/kg
  MAG (magnesium), After: 0.7 mmol/L (4×) and 0.8 mmol/L (2×)
[5]; individual dogs #1-#6, reference range 1.9 to 3.1, 1 mg/kg
  GLOB (globulin), After: 2.3 g/dL (2×) and 2 g/dL (2×) and 2.6 g/dL and 2.1 g/dL
[5]; individual dogs #1-#6, reference range 2.5 to 5.9, 1 mg/kg
  PHOS (phosphorus), After: 3.5 mg/dL and 4.3 mg/dL and 3.3 mg/dL and 3.9 mg/dL and 3.4 mg/dL and 3.6 mg/dL
[5]; individual dogs #1-#6, reference range 2.8 to 4.7, 1 mg/kg
  POTAS (potassium), After: 3.9 mEq/L and 4.2 mEq/L and 3.7 mEq/L (2×) and 3.5 mEq/L and 3.8 mEq/L
[5]; individual dogs #1-#6, reference range 3.2 to 4.3, 1 mg/kg
  ALBUM (albumin), After: 3.1 L g/dL and 3.4 g/dL (2×) and 3 L g/dL and 3.5 g/dL and 3.3 g/dL
[5]; individual dogs #1-#6, reference range 5.4 to 6.8, 1 mg/kg
  TOT. PROT (total proteins), After: 5.4 g/dL (2×) and 5.7 g/dL and 5.6 g/dL (2×) and 5.2 L g/dL
[5]; individual dogs #1-#6, reference range 7 to 37, 1 mg/kg
  BUN (blood urea nitrogen), After: 12 mg/dL and 17 mg/dL (2×) and 14 mg/dL and 16 mg/dL and 19 mg/dL
[5]; individual dogs #1-#6, reference range 10 to 12, 1 mg/kg
  CAL (calcium), After: 9.5 L mg/dL and 10 mg/dL and 9.9 L mg/dL and 9.7 L mg/dL and 10.3 mg/dL and 9.4 L mg/dL
[5]; individual dogs #1-#6, reference range 18 to 100, 1 mg/kg
  ALT (alanine aminotransferase), After: 26 U/L (2×) and 23 U/L and 22 U/L (2×) and 25 U/L
[5]; individual dogs #1-#6, reference range 82 to 132, 1 mg/kg
  GLUCO (glucose), After: 94 mg/dL and 103 mg/dL and 100 mg/dL and 91 mg/dL and 105 mg/dL and 110 mg/dL
[5]; individual dogs #1-#6, reference range 112 to 119, 1 mg/kg
  CHLOR (chlorine), After: 111 L mEq/L and 114 mEq/L (2×) and 113 mEq/L and 112 mEq/L and 116 mEq/L
[5]; individual dogs #1-#6, reference range 141 to 147, 1 mg/kg
  SOD (sodium), After: 144 mEq/L and 146 mEq/L (2×) and 147 mEq/L (2×) and 148 H mEq/L
[6]
  Water solubility compared to fluorocoxib A: improved water solubility
